The record followed here is patent publication US10548856B2, “Compounds and methods for modulating serotonin receptors in the periphery” (Northeastern University, priority 2015, dated 2020).

Each structure is given as a SMILES string. Like-named read-outs stand apart in the source and are kept apart here.

The target in one data set is T1, Human 5-HT7 (Homo sapiens, UniProt P34969).
T1 construct: expressed in transfected cells; host or cells: HEK293
Briefly: In vitro binding affinity to serotonin 5-HT7 receptors using HEK293 cells. From the text: 2015, 6, 1259-1270. The compounds are tertiary amines and available to bind 5-HT7 receptors both in the brain and in the periphery. Each of the compounds can be derivatized to a corresponding positively-charged quaternary amine, for example, by the addition of a third alkyl group, R3, to render it impermeable to the blood-brain barrier and specific for peripheral 5-HT7 receptors.

The nature of data set [1]: Plasma and brain concentrations after subcutaneous administration (LC-MS/MS). It is filed as in vivo, C57Bl/6J mice. To be noted: for concentration at 30 min / concentration at 60 min / concentration at 90 min: male, C57Bl/6J, mouse, 3.0 mg/kg subcutaneous, mice, mean (SEM); for concentration at 30 min: 30 min after injection; for concentration at 60 min: 60 min after injection; for concentration at 90 min: 90 min after injection. The procedure:
At 30, 60, or 90 min later, mice were euthanized by rapid cervical dislocation and decapitation. Trunk blood was collected in pre-chilled, heparin-coated tubes. Brains were quickly excised and frozen in liquid nitrogen. Plasma was collected from blood after centrifugation for 5 min at 13,000 g. Whole brain samples were wrapped in foil, and brain and plasma samples were labeled and stored at −80° C. until liquid chromatography-mass spectrometry/mass spectrometry (LC-MS/MS) assays were performed. Frozen brain samples were weighed and homogenized in phosphate buffered saline (PBS), pH 7.4. After the first analysis, the extra brain homogenate was stored at −80° C. until they were thawed for a second, more dilute, analysis. Plasma samples were used directly upon arrival. The proteins from each plasma sample and a portion of each brain homogenate were immediately precipitated with 1:1 methanol:acetonitrile (4× starting volume) and internal standard ((−)-MBP^68) followed by centrifugation at 14,000 g for 5 minutes at 4° C. The resulting supernatants from each sample were dried under nitrogen. Each sample was reconstituted in methanol, vortexed, sonicated briefly, and centrifuged prior to LC-MS/MS analysis. Calibration curves were constructed from the ratios of the peak areas of 5-FPT versus (−)-MBP in extracted standards made in mouse plasma or homogenized mouse brain.
LC-MS/MS analysis was performed using an Agilent 1100 series HPLC and a Thermo Finnigan Quantum Ultra triple quad mass spectrometer. The mobile phases used were 0.1% formic acid in water (A) and 0.1% formic acid in methanol (B) in a 5 minute gradient. Samples of 10 μL each were injected onto a Phenomenex Gemini C18 column (2×50 mm, 5μ) with a C18 guard column. 5-FPT and its internal standard ((−)-MBP) were ionized in ESI+ and detected in SRM mode. Internal standards were used for quantification of the compound level per g tissue or per μL plasma. Four mice were included per group, but plasma levels from one mouse were not detectable due to low volume of blood collected.

For a further data set, the system named is DOI HTR. The data set is described as follows: Attenuation of the DOI HTR. It is filed as in vivo. To be noted: 5.6 mg/kg.
The mark [2] stands for this setting: brain, read-out: Brain concentration.
[3] abbreviates: plasma, read-out: Plasma concentration.

T1 sequence (P34969 1-445 isoform P34969-2): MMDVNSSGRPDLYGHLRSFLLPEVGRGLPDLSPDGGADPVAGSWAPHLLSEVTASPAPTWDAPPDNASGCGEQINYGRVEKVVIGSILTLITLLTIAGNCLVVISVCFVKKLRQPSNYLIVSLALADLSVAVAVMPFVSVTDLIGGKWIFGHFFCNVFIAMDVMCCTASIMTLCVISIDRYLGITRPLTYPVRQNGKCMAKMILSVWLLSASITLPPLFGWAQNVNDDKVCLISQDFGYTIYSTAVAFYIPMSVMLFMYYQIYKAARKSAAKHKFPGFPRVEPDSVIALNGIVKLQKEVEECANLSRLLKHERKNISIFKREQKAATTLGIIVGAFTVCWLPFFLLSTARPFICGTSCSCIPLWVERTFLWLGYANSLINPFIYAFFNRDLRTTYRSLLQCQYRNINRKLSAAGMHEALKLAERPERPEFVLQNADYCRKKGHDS

Regarding `COc1cc(-c2ccccc2)c2c(c1OC)CC(N(C)C)CC2` (racemic) [(R/S)-Methyl / 7,8-diOMe-5-Phenyl], the Ki (as a rule, the equilibrium dissociation constant of an inhibitor or competing ligand from its target) on Human 5-HT7 is greater than 10000 nM.

At Human 5-HT7, `CN(C)C1CCc2c(cccc2C2CCCC2)C1` (racemic) [(R/S)-Methyl / Cyclopentyl] had a Ki of 240 ± 35 nM.

As for `CN(C)C1CCc2c(cccc2OCc2ccccc2)C1` (racemic) [(R/S)-Methyl / O-Benzyl], the Ki on Human 5-HT7 was greater than 10000 nM.

`CN(C)C1CCc2c(cccc2-c2ccc(F)cc2Cl)C1` (racemic) [(R/S)-Methyl / Phenyl-2′-Cl-4′-F] registered a Ki on Human 5-HT7 of 30 ± 10 nM.

In turn, `CN(C)C1CCc2c(cccc2-c2cc(Cl)cc(Cl)c2)C1` (racemic) [(R/S)-Methyl / Phenyl-3′,5′-Cl] showed a Ki at Human 5-HT7 of 40 ± 60 nM.

Compound `CN(C)C1CCc2c(cccc2-c2cc(F)cc(F)c2)C1` (racemic) [(R/S)-Methyl / Phenyl-3′,5′-F] showed a Ki on Human 5-HT7 of 180 ± 32 nM. This Ki lies about 4.5-fold higher than the previous one.

As for `CN(C)C1CCc2c(cccc2-c2cccc(C(F)(F)F)c2)C1` (racemic) [(R/S)-Methyl / Phenyl-3′-CF3], the Ki on Human 5-HT7 worked out at 63 ± 6.6 nM.

`CN(C)C1CCc2c(cccc2-c2cccc(Cl)c2)C1` (racemic) [(R/S)-Methyl / Phenyl-3′-Cl] displayed a Ki on Human 5-HT7 of 18 ± 2.4 nM.

For the compound `CN(C)C1CCc2c(cccc2-c2cccc(F)c2)C1` (racemic) [(R/S)-Methyl / Phenyl-3′-F], the affinity at Human 5-HT7 corresponds to a Ki of 34 ± 6.2 nM.

`COc1cccc(-c2cccc3c2CCC(N(C)C)C3)c1` (racemic) [(R/S)-Methyl / Phenyl-3′-OMe]: the affinity on Human 5-HT7, expressed as Ki, was 37 ± 9 nM.

Compound `CN(C)C1CCc2c(cccc2-c2ccc(F)cc2)C1` (racemic) [(R/S)-Methyl / Phenyl-4′-F] registered a Ki at Human 5-HT7 of 120 ± 17 nM. Compared with the last compound, the Ki is about 3.2-fold higher.

Regarding `CN(C)C1CCc2c(cccc2-c2ccccc2F)C1` (single isomer, unassigned; (+)) [(+)-5-FPT, 5-(2′-fluorophenyl)-N,N-dimethyl-1,2,3,4-tetrahydronaphthalen-2-amine], in data set [1] (30, 60 and 90 min after systemic administration), the Blood-brain barrier crossing result is reported as “readily crosses the blood-brain barrier”. Also, the “Clearance in the periphery (plasma relative to brain levels)” value in data set [1] (as soon as 30 min post-administration) is recorded as “rapidly cleared in the periphery”. Besides, in data set [1] (setting [2]), the concentration at 30 min worked out at 1780 ng/g, the concentration at 60 min was 2160 ng/g and the concentration at 90 min came to 1460 ng/g. Also, in data set [1] (setting [3]), the concentration at 30 min turned out to be 114 ng/mL, the concentration at 60 min was found to be 118 ng/mL and the concentration at 90 min is 70 ng/mL. Moreover, in the data set with DOI HTR, the “Time for which attenuating effect on the DOI HTR remained significant” value is “up to 2 hrs”. Further, the “Block of the DOI HTR” value with DOI HTR (3 hrs. post-administration) is listed as “did not block the DOI HTR”.

With `CN(C)[C@@H]1CCc2c(cccc2-c2ccccc2Cl)C1` [(R)-Methyl / Phenyl-2′-Cl], the inhibition constant Ki at Human 5-HT7 amounted to 58 ± 12 nM.

In the case of `CN(C)[C@@H]1CCc2c(cccc2-c2ccccc2F)C1` [(R)-Methyl / Phenyl-2′-F], on Human 5-HT7, affinity was put at a Ki of 260 ± 53 nM.

At Human 5-HT7, `CN(C)[C@@H]1CCc2c(cccc2-c2ccccc2)C1` [(R)-Methyl / Phenyl] registered a Ki of 4400 ± 930 nM.

`CCCN(CCC)[C@@H]1CCc2c(cccc2-c2ccccc2F)C1` [(R)-Propyl / 2′-F-Phenyl] displayed a Ki on Human 5-HT7 of 63 ± 2.7 nM.

For `CCCN(CCC)[C@@H]1CCc2c(cccc2-c2ccccc2)C1` [(R)-Propyl / Phenyl], at Human 5-HT7, the inhibitory constant (Ki) came out at 180 ± 31 nM.

On Human 5-HT7, `CN(C)[C@H]1CCc2c(cccc2-c2ccc(Cl)cc2)C1` [(S)-Methyl / Pheny-4′-Cl] registered a Ki of 72 ± 5.8 nM.

Compound `CN(C)[C@H]1CCc2c(cccc2-c2ccccc2Cl)C1` [(S)-Methyl / Phenyl-2′-Cl] showed a Ki at Human 5-HT7 of 6 ± 0.6 nM. This Ki lies about 12-fold lower than the previous one.

For the compound `CN(C)[C@H]1CCc2c(cccc2-c2ccccc2F)C1` [(S)-Methyl / Phenyl-2′-F], the Ki at Human 5-HT7 stood at 6 ± 0.7 nM.

As for `CN(C)[C@H]1CCc2c(cccc2-c2cc(C(F)(F)F)cc(C(F)(F)F)c2)C1` [(S)-Methyl / Phenyl-3′,5′-CF3], the Ki on Human 5-HT7 turned out to be 910 ± 260 nM.

The compound `CN(C)[C@H]1CCc2c(cccc2-c2ccccc2)C1` [(S)-Methyl / Phenyl] came in with a Ki at Human 5-HT7 of 9 ± 0.4 nM.

Turning to `CCCN(CCC)[C@H]1CCc2c(cccc2-c2ccccc2F)C1` [(S)-Propyl / 2′-F-Phenyl], the affinity at Human 5-HT7 corresponds to a Ki of 35 ± 5.2 nM. Against the preceding compound, the Ki is about 3.9-fold higher.

As to `CCCN(CCC)[C@H]1CCc2c(cccc2-c2ccccc2)C1` [(S)-Propyl / Phenyl], at Human 5-HT7, the Ki worked out at 83 ± 5.8 nM.
